According to patent publication US20190209548A1, “LINKED DIARYL COMPOUNDS WITH ANTICANCER PROPERTIES AND METHODS OF USING THE SAME” (University of Maryland, College Park, priority 2014, published 2019):

Tests used:
[1] = tested on: telomerase activity in MDA-MB-231; test: Telomerase activity assay (TRAPeze XL) in treated cells; format: cell-based, human
Description: Telomerase Activity Assay. MDA-MB-231 cells were routinely cultured in DMEM with 10% FBS and 1% L-glutamine. The evening prior to treatment, actively growing MDA-MB-231 cells were sub-cultured and seeded into T-25 flasks at 2×10^5 cells/flask. […] At 48 and 72 hours after treatment, cells were harvested, washed with PBS, and pelleted. Cell pellets were resuspended in 200 μl CHAPS lysis buffer with 200 units/mL RNase inhibitor, mixed by pipetting, and incubated on ice for 30 minutes. Lysates were then centrifuged at 12,000×g for 20 minutes at 4° C., and supernatants were collected, snap frozen, and stored at −80° C. until analysis. Telomerase activity was assayed using a fluorescence-based TRAPeze XL telomerase detection kit (Intergen, Purchase, N.Y.). According to manufacturer, lysates (1000 cell-equivalents) were mixed with TRAPeze XL reaction mix containing Amplifuor primers and incubated at 30° C. for 30 min to allow the elongation of “TS” primer by telomerase. Amplified telomerase products were quantitated with a fluorescence plate reader. Telomerase activity (in TPG units) was calculated by comparing the ratio of telomerase products to an internal standard for each lysate, as described by the manufacturer. Each unit of TPG (Total Product Generated) corresponds to the number of TS primers extended with at least 3 telomeric repeats by telomerase in the extract in a 30 minute incubation at 30° C.

MCR5A = test: WST-1 IC50 determination, normal fibroblast; format: cell-based, human; conditions: normal fibroblast cell, 72 hours
Description: Cell lines and culturing. The following human cell lines were purchased from ATCC (ATCC, Manassas, Va.): prostate cancer cells (PC-3), triple negative breast cancer cells (MDA-MB-231), ovarian cancer cells (OVCAR-3), normal bone marrow (NBM) and normal fibroblast cells (MCR5A). MDA-MB-231 cells were grown at 37° C. with 5% CO2 atmosphere with DMEM (Life technologies, Carlsbad, Calif.) supplemented with heat-inactivated 10% (V/V) fetal bovine serum. OVCAR-3 and PC-3 cells were grown at 37° C. with 5% CO2 atmosphere with RPMI (Life technologies, Carlsbad, Calif.) supplemented with heat-inactivated 10% (V/V) fetal bovine serum. Cell lines were grown and maintained according to ATCC recommendations.
IC50 determination. Cell lines were seeded into 96-well plates the afternoon prior to treatment. Cell seeding number was determined by growing cells in log phase growth during drug treatment. Approximately 18 hours later, compounds were semi-serially diluted in dimethyl sulfoxide (DMSO) and then growth medium, and added to cells. Plates were incubated for 72 hours prior to addition of WST-1 (Promega, Madison Wis.). Plates were read after 4 additional hours of incubation at 37° C. using a Bio-Tek Synergy HT plate reader (Bio-Tek, Winooski, Vt.). Data was analyzed, graphed and IC50s generated using GraphPad Prism Software (Graphpad, La Jolla, Calif.).

[2] = tested on: G-quadruplex DNAs (c-kit1, VEGF, bcl-2 2345 and TBA); test: UV-visible titration with G-quadruplex DNA; format: binding; conditions: ligand 10 μM, DNA 0-150 μM, 250 mM KCl, Tris-HCl pH 7.5
Description: UV titration studies of DNA with the triazene ligands, DMZ and Triazene-1. The molar extinction coefficients at 260 nm for 22-mer c-kit1, 18-mer VEGF, 23-mer bcl-2 2345, 15-mer TBA and 20-mer 8 bp AT are as follows 226,700 M^−1 cm^−1, 169,800 M^−1 cm^−1, 227,300 M^−1 cm^−1, 143,300 M^−1 cm^1 and 205,500 M^−1 cm^−1, respectively. The concentration of ligands used in this study was 10 μM and the DNA concentrations were 0, 0.25, 1.5, 3, 5, 6, 7, 8, 9, 10, 20, 30, 40, 50, 100, and 15 μM. The buffer contained 250 mM KCl, 50 mM Tris-HCl (at pH 7.5). The following quadruplex DNA were tested: c-kit1, VEGF, bcl-2 2345, and TBA. Duplex DNA (8 bp AT) was also tested. The sample was first heated up to 95° C. for 5 min without the ligand and then cooled down to room temperature in 15 min. The ligand was then added and the mixture was incubated at 4° C. for ˜12 h before recording the data. In case of Triazene-1 and Triazene-2, the sample mixture contained 1% DMSO.

22mer hTel K^+ = test: ITC titration with hTel G-quadruplex, K+ form; format: binding, human
Description: (§1) Isothermal titration calorimetry. ITC experiments were performed using a VP-ITC calorimeter (GE-Healthcare). A typical ITC experiment involved as many as addition of 28 (10 μL) injections of as high as 1 mM ligand solutions into ˜1.5 mL of a dilute DNA solution (10 μM). Corrected titration curves were achieved by subtracting the blank titration data from the ITC-data for the ligand-DNA titrations. Corrected ITC titrations were fit with a nonlinear regression algorithm again using the CHASM ITC data analysis program developed in our laboratory.
DNA stock solutions were prepared by reconstituting the lyophilized oligonucleotide into 20 mM Tris buffer with a salt concentration of 100 mM KCl and a pH of 7.2. Approximately 2 mL of the oligonucleotide was dialyzed (1000 Mw cutoff membrane) against three changes of buffer solution (1 L, 24 h each) at 4° C. The concentrations of stock DNA solutions were verified using UV-Vis. G-Quadruplex DNAs were annealed by quickly heating to sample to 100° C., holding at 100° C. for ten minutes then slowly cooling to 5° C. over three hours period. Molar extinction coefficient of the DNAs were determined using a nearest-neighbor method for single stranded DNA. The extinction coefficients at 260 nm for the WT 27-mer bcl-2, WT 24-mer c-myc, WT 22-mer human telomere hTel sequences are 267,200 M^−1cm^−1, 248,100 M^−1cm^−1, and 228,500 M^−1cm^−1 respectively. […]

24mer c-myc = test: ITC titration with c-myc G-quadruplex; format: binding
Description: as §1
DNA stock solutions were prepared by reconstituting the lyophilized oligonucleotide into 20 mM Tris buffer with a salt concentration of 100 mM KCl and a pH of 7.2. Approximately 2 mL of the oligonucleotide was dialyzed (1000 Mw cutoff membrane) against three changes of buffer solution (1 L, 24 h each) at 4° C. The concentrations of stock DNA solutions were verified using UV-Vis. G-Quadruplex DNAs were annealed by quickly heating to sample to 100° C., holding at 100° C. for ten minutes then slowly cooling to 5° C. over three hours period. Molar extinction coefficient of the DNAs were determined using a nearest-neighbor method for single stranded DNA. The extinction coefficients at 260 nm for the WT 27-mer bcl-2, WT 24-mer c-myc, WT 22-mer human telomere hTel sequences are 267,200 M^−1cm^−1, 248,100 M^−1cm^−1, and 228,500 M^−1cm^−1 respectively. The extinction coefficient at 260 nm for the 7 base pair hairpin with A2T2 (7 bp HP⋅AT) and the 7 base pair hairpin without A2T2 (7 bp HP) are 165,200 M^−1cm^−1 and 159,200 M^−1cm^−1 respectively. Cell culture grade water purchased from Corning was used for all experiments.

8 bp AT = test: CD titration with AT-rich duplex DNA; format: binding; conditions: ligand 40 μM, 8 bp AT 0-50 μM
Description: CD experiments for binding of ligands with duplex DNA (AT-rich). CD titration experiments, monitoring in the wavelength region corresponding to the bound ligand, were performed with different concentrations of 8 bp AT (0-50 μM) added to a fixed concentration of either DMZ or Triazene-1 (40 μM).

[3] = ITC, 20 mM Tris, 100 mM KCl, pH 7.2

N=C(N)c1ccc(/N=N/Nc2ccccc2C#Cc2ccc(F)cc2)cc1 [DMZ13]
inhibition of telomerase activity ([1]; 12.4 μM, 48 h): about 20%
inhibition of telomerase activity ([1]; 12.4 μM, 72 h): about 30%
IC50 ± SD, MCR5A (MCR5A): NE (NE means not effective. Cell viability was the same or greater than 75% of the DMSO control at 20 μM compound concentration.)

N=C(N)c1ccc(/N=N/Nc2ccc(C(=N)N)cc2)cc1 [DMZ, Diminazene aceturate, reference compound]
shift of absorption spectrum upon DNA titration [2]: remarkable bathochromic shift (red shift) and a hypochromic effect
K3 (22mer hTel K^+): 55000 M⁻¹
K1 (24mer c-myc; [3]): 7.6e+08 M⁻¹
K2 (24mer c-myc; [3]): 1.9e+07 M⁻¹
K3 (24mer c-myc; [3]): 280000 M⁻¹
Kd (24mer c-myc; from ITC data, as low as, read-out: dissociation constant): ~0.001 µM
induced CD of ligand (8 bp AT): large positive induced CD

N=C(N)c1ccc(N=NNc2cccc(C#Cc3ccc(F)cc3)c2)cc1 [DMZ9]
inhibition of telomerase activity ([1]; 11 μM, 48 h or 72 h): up to 50%
IC50 (MCR5A; read-out: IC50 ± SD, MCR5A): 8.3 ± 4 µM

N=C(N)c1ccc(NN=Nc2ccccc2)cc1 [DMZ1]
shift of absorption spectrum upon DNA titration [2]: red shift
K1 (22mer hTel K^+): 2100 M⁻¹
K1 (24mer c-myc; [3]): 36000 M⁻¹
induced CD of ligand (8 bp AT): No induced CD
